Test results: ChEMBL document CHEMBL4417631, “Oral peptide inhibitors of interleukin-23 receptor and their use to treat inflammatory bowel diseases” (2017)
*1 amine or outer side, *2 acyl side, *3 side chain or, on linkers, in order; H or OH if unused. Where a SMILES comes first, the peptide text is derived from it. Bridges are numbered along the chain shown (N, C = ends). [ ]: non-standard residue; d: D form. The star is where a group is joined. Abu(4-yl) = O=C([C@H](CC[*:3])N[*:1])[*:2]; AEF = NCCOc1ccc(C[C@H](N)C(=O)O)cc1; αMeK = C[C@](N)(CCCCN)C(=O)O; Dap = NC[C@H](N)C(=O)O; OBn = c1ccc(CO*)cc1

Biological target: T1, Interleukin-23 receptor (Homo sapiens, UniProt Q5VWK5)
T1 sequence (Q5VWK5 whole entry): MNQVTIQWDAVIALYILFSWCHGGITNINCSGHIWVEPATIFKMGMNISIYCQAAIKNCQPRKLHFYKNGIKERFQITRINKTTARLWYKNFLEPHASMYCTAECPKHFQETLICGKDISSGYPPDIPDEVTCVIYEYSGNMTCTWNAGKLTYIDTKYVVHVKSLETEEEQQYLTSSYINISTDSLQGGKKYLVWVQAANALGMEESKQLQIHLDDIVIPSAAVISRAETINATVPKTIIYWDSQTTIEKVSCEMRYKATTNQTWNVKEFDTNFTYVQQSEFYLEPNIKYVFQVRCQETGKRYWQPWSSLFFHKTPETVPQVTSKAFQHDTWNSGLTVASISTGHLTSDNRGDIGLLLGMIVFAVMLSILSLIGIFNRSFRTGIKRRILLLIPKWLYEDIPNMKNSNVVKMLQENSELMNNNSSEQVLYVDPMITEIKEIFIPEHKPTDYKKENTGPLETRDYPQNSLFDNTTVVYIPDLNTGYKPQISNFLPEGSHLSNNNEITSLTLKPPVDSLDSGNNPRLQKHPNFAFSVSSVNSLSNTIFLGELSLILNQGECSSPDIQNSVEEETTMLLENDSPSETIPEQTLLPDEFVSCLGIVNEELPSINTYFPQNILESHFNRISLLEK
Assay: Inhibition of interleukin-23 binding to human interleukin-23 receptor incubated for 2 hrs by competitive binding ELISA

Structure (SMILES)	IC50 [nM]
CC(C)[C@H](NC(=O)[C@H](Cc1c[nH]c2ccccc12)NC(=O)[C@H](CC(=O)O)NC(=O)[C@H](C)NC(=O)[C@@H](N)CS)C(=O)N[C@@H](CS)C(=O)N[C@@H](Cc1ccc(O)cc1)C(=O)N[C@@H](Cc1c[nH]c2ccccc12)C(=O)N[C@@H](Cc1cnc[nH]1)C(=O)N[C@H](C(=O)N[C@@H](Cc1ccccc1)C(=O)NCC(=O)N[C@@H](CCCCNC(=O)COCC(=O)NCCCC[C@H](NC(=O)CNC(=O)[C@H](Cc1ccccc1)NC(=O)[C@@H](NC(=O)[C@H](Cc1cnc[nH]1)NC(=O)[C@H](Cc1c[nH]c2ccccc12)NC(=O)[C@H](Cc1ccc(O)cc1)NC(=O)[C@H](CS)NC(=O)[C@@H](NC(=O)[C@H](Cc1c[nH]c2ccccc12)NC(=O)[C@H](CC(=O)O)NC(=O)[C@H](C)NC(=O)[C@@H](N)CS)C(C)C)[C@@H](C)O)C(=O)O)C(=O)O)[C@@H](C)O	1000 to 10000
N=C(N)NCCC[C@H](NC(=O)[C@H](Cc1c[nH]c2ccccc12)NC(=O)[C@H](Cc1ccc(O)cc1)NC(=O)[C@@H]1CCSCc2ccc(cc2)C(=O)N[C@@H](CCC(N)=O)C(=O)N[C@@H](CC(=O)O)C(=O)N[C@@H](Cc2c[nH]c3ccccc23)C(=O)N[C@@H](CCC(N)=O)C(=O)N1)C(=O)N[C@@H](CCC(=O)O)C(=O)N[C@@H](CC(N)=O)C(=O)NCC(=O)NCCOCC(=O)N[C@H](CCCCN)C(N)=O	> 30000
CC(=O)N[C@@H](CS)C(=O)N[C@@H](C)C(=O)N[C@@H](CC(=O)O)C(=O)N[C@@H](Cc1c[nH]c2ccccc12)C(=O)N[C@@H](CCC(=O)O)C(=O)N[C@@H](CS)C(=O)N[C@@H](Cc1ccc(O)cc1)C(=O)N[C@@H](Cc1c[nH]c2ccccc12)C(=O)N[C@@H](Cc1cnc[nH]1)C(=O)N[C@H](C(=O)N[C@@H](Cc1ccccc1)C(=O)NCC(N)=O)[C@@H](C)O	> 1000
CC(=O)N[C@@H](CS)C(=O)N[C@@H](CCC(N)=O)C(=O)N[C@H](C(=O)N[C@@H](Cc1c[nH]c2ccccc12)C(=O)N[C@@H](CCC(N)=O)C(=O)N[C@@H](CS)C(=O)N[C@@H](Cc1cnc[nH]1)C(=O)N[C@@H](Cc1c[nH]c2ccccc12)C(=O)N[C@@H](CCC(C)C)C(=O)N[C@@H](CCC(=O)O)C(=O)N[C@@H](CC(N)=O)C(=O)NCC(N)=O)[C@@H](C)O	6000
CC(C)[C@H](NC(=O)[C@@H]1Cc2ccccc2CN1C(=O)[C@H](CC(=O)O)NC(=O)[C@H](C)NC(=O)[C@@H](N)CS)C(=O)N[C@@H](CS)C(=O)N[C@@H](Cc1ccc(O)cc1)C(=O)N[C@@H](Cc1c[nH]c2ccccc12)C(=O)N[C@@H](Cc1cnc[nH]1)C(=O)N[C@H](C(=O)N[C@@H](Cc1ccccc1)C(=O)NCC(N)=O)[C@@H](C)O	> 1000
CC(C)[C@H](NC(=O)[C@H](Cc1c[nH]c2ccccc12)NC(=O)[C@H](CC(=O)O)NC(=O)[C@H](C)NC(=O)[C@@H](N)CS)C(=O)N[C@@H](CS)C(=O)N[C@@H](Cc1ccc(O)cc1)C(=O)N[C@@H](Cc1c[nH]c2ccccc12)C(=O)N[C@@H](Cc1cnc[nH]1)C(=O)N[C@H](C(=O)N[C@@H](Cc1ccccc1)C(=O)NCC(=O)N[C@@H](CCCCN)C(=O)O)[C@@H](C)O	> 1000
N=C(N)NCCC[C@H](NC(=O)[C@H](Cc1c[nH]c2ccccc12)NC(=O)[C@H](Cc1ccc(O)cc1)NC(=O)[C@@H]1CSCCCC(=O)N[C@@H](CCC(N)=O)C(=O)N[C@@H](CC(=O)O)C(=O)N[C@@H](Cc2c[nH]c3ccccc23)C(=O)N[C@@H](CCC(N)=O)C(=O)N1)C(=O)N[C@@H](CCC(=O)O)C(=O)N[C@@H](CC(N)=O)C(=O)NCC(=O)NCCOCC(=O)N[C@H](CCCCN)C(N)=O	6000
C[C@H](N)C(=O)N[C@@H](C)C(=O)N[C@@H](CC(=O)O)C(=O)N[C@@H](Cc1c[nH]c2ccccc12)C(=O)N[C@@H](CS)C(=O)N[C@@H](C)C(=O)N[C@@H](Cc1ccc(O)cc1)C(=O)N[C@@H](Cc1c[nH]c2ccccc12)C(=O)N[C@@H](CS)C(=O)N[C@H](C(=O)N[C@@H](Cc1ccccc1)C(=O)NCC(N)=O)[C@@H](C)O (H-AADWCAYWCTFG-NH2)	> 1000
CC(C)[C@H](NC(=O)[C@H](Cc1c[nH]c2ccccc12)NC(=O)[C@H](CC(=O)O)NC(=O)[C@H](C)NC(=O)[C@@H](N)CS)C(=O)N[C@@H](CS)C(=O)N[C@@H](Cc1ccc(O)cc1)C(=O)N[C@@H](Cc1cccc2ccccc12)C(=O)N[C@@H](Cc1cnc[nH]1)C(=O)N(C)CC(=O)N[C@@H](Cc1ccccc1)C(=O)O	> 1000
CC(=O)NCCCC[C@H](NC(=O)[C@](C)(CCCCN)NC(=O)[C@H](CCC(=O)OCc1ccccc1)NC(=O)[C@H](Cc1ccc(OCCN)cc1)NC(=O)[C@@H]1CSCC[C@H](NC(C)=O)C(=O)N[C@@H](CN)C(=O)N[C@@H]([C@@H](C)O)C(=O)N[C@@H](Cc2c[nH]c3ccccc23)C(=O)N[C@@H](CCC(N)=O)C(=O)N1)C(=O)N[C@@H](CC(N)=O)C(=O)NCC(N)=O (Ac-[Abu(4-yl)][Dap]TWQC[AEF]E(OBn)[αMeK]K(Ac)NG-NH2; thioether 1-6)	> 3000

The remaining lines, values ahead:

IC50 [nM]	Structure (SMILES)
100 to 1000	CC(=O)N[C@H]1CCSC[C@@H](C(=O)N[C@@H](Cc2ccc(C(N)=O)cc2)C(=O)N[C@@H](Cc2ccc3ccccc3c2)C(=O)NC(C)(C)C(=O)N[C@@H](CCC(=O)O)C(=O)N[C@@H](CC(N)=O)C(=O)NCC(N)=O)NC(=O)[C@H](CCC(N)=O)NC(=O)[C@H](Cc2c[nH]c3ccccc23)NC(=O)[C@H]([C@@H](C)O)NC(=O)[C@H](CCC(N)=O)NC1=O
< 500	CC(=O)N[C@@H](CS)C(=O)N[C@@H](C)C(=O)N[C@@H](CC(=O)O)C(=O)N[C@@H](Cc1c[nH]c2ccccc12)C(=O)N[C@H](C(=O)N[C@@H](CS)C(=O)N[C@@H](Cc1ccc(O)cc1)C(=O)N[C@@H](Cc1c[nH]c2ccccc12)C(=O)N[C@@H](Cc1cnc[nH]1)C(=O)N[C@H](C(=O)N[C@@H](Cc1ccccc1)C(=O)NCC(=O)NCCOCCC(=O)N[C@@H](CCCCN)C(=O)O)[C@@H](C)O)C(C)C
< 500	CC(=O)N[C@@H](CS)C(=O)N[C@@H](CCC(N)=O)C(=O)N[C@H](C(=O)N[C@@H](Cc1c[nH]c2ccccc12)C(=O)N[C@@H](CCC(N)=O)C(=O)N[C@@H](CS)C(=O)N[C@@H](Cc1ccc(O)cc1)C(=O)N[C@@H](Cc1c[nH]c2ccccc12)C(=O)N[C@@H](CCCNC(=N)N)C(=O)N[C@@H](CCC(=O)O)C(=O)N[C@@H](CC(N)=O)C(=O)NCC(=O)NCCOCC(=O)N[C@H](CCCCN)C(N)=O)[C@@H](C)O
< 500	CC(=O)N[C@@H](CS)C(=O)N[C@@H](C)C(=O)N[C@@H](CC(=O)O)C(=O)N[C@@H](Cc1c[nH]c2ccccc12)C(=O)N[C@H](C(=O)N[C@@H](CS)C(=O)N[C@@H](Cc1ccc(O)cc1)C(=O)N[C@@H](Cc1c[nH]c2ccccc12)C(=O)N[C@@H](Cc1cnc[nH]1)C(=O)N[C@@H](CCCNC(=N)N)C(=O)N[C@@H](Cc1cnc[nH]1)C(=O)N[C@@H](C)C(=O)N[C@@H](CC(=O)O)C(=O)N[C@@H](CCCNC(=N)N)C(=O)N[C@H](C(=O)N[C@@H](CCCCN)C(N)=O)C(C)C)C(C)C (Ac-CADWVCYWHRHADRVK-NH2)
100 to 1000	CC(=O)N[C@H](C(=O)N[C@@H](CCC(N)=O)C(=O)N[C@H](C(=O)N[C@@H](Cc1c[nH]c2ccccc12)C(=O)N[C@@H](CCC(N)=O)C(=O)N[C@H](C(=O)N[C@@H](Cc1ccc(Cl)c(Cl)c1)C(=O)N[C@@H](Cc1ccc2ccccc2c1)C(=O)N[C@@](C)(CCCN)C(=O)N[C@@H](CCC(=O)O)C(=O)N[C@@H](CC(N)=O)C(=O)NCC(N)=O)C(C)(C)S)[C@@H](C)O)C(C)(C)S
500 to 1000	CC(=O)N[C@H](CCCCN)C(=O)N[C@@H](CS)C(=O)N[C@@H](CCCNC(=N)N)C(=O)N[C@@H](CC(=O)O)C(=O)N[C@@H](Cc1c[nH]c2ccccc12)C(=O)N[C@@H](CCC(N)=O)C(=O)N[C@@H](CS)C(=O)N[C@@H](Cc1ccc(O)cc1)C(=O)N[C@@H](Cc1cccc2ccccc12)C(=O)N[C@@H](Cc1cnc[nH]1)C(=O)N[C@H](C(=O)N[C@@H](Cc1cnc[nH]1)C(=O)N(C)CC(=O)NCCOCCC(=O)N[C@H](CCCNC(=N)N)C(N)=O)[C@@H](C)O
100 to 1000	CCCCCCCC(=O)N[C@H](C(=O)N[C@@H](CCC(N)=O)C(=O)N[C@H](C(=O)N[C@@H](Cc1c[nH]c2ccccc12)C(=O)N[C@@H](CCC(N)=O)C(=O)N[C@H](C(=O)N[C@@H](Cc1ccc(OC)cc1)C(=O)N[C@@H](Cc1ccc2ccccc2c1)C(=O)N[C@@](C)(CCCCN)C(=O)N[C@@H](CCCCNC(C)=O)C(=O)N[C@@H](CC(N)=O)C(=O)NCC(N)=O)C(C)(C)S)[C@@H](C)O)C(C)(C)S
500 to 1000	CC(=O)N[C@@H](CCCNC(=N)N)C(=O)N[C@@H](CCC(=O)O)C(=O)NCC(=O)N[C@H](C(=O)N[C@@H](CS)C(=O)N[C@@H](CO)C(=O)N[C@H](C(=O)N[C@@H](Cc1c[nH]c2ccccc12)C(=O)N[C@@H](CCCCN)C(=O)N[C@@H](CS)C(=O)N[C@@H](Cc1ccc(O)cc1)C(=O)N[C@@H](Cc1c[nH]c2ccccc12)C(=O)N[C@@H](Cc1cnc[nH]1)C(=O)N[C@H](C(=O)N[C@@H](Cc1ccccc1)C(=O)NCC(N)=O)[C@@H](C)O)[C@@H](C)O)[C@@H](C)O (Ac-REGTCSTWKCYWHTFG-NH2)
< 500	CC(=O)N[C@@H](CS)C(=O)N[C@@H](CCC(N)=O)C(=O)N[C@H](C(=O)N[C@@H](Cc1c[nH]c2ccccc12)C(=O)N[C@@H](CCC(=O)O)C(=O)N[C@@H](CS)C(=O)N[C@@H](Cc1ccc(O)cc1)C(=O)N[C@@H](Cc1c[nH]c2ccccc12)C(=O)N[C@@H](Cc1cnc[nH]1)C(=O)N[C@@H](CC(C)C)C(=O)N[C@@H](Cc1ccc(O)cc1)C(=O)NCC(N)=O)[C@@H](C)O (Ac-CQTWECYWHLYG-NH2)
